Where two headings read alike, the source gives them in different places.
Experiments:
FGFR2 K641R = FGFR2 K641R (Homo sapiens (Human), UniProt P21802, K641R); test: HTRF kinase activity assay, FGFR2 K641R; type: biochemical
Procedure: (§1) Activity Experiment 8: Inhibition of FGFR Family Kinases' Activity by Prepared Compounds The compounds were assayed for activity IC50 against the FGFR family kinases. Related kinases were purchased from Carna and Signalchem. The activity assay method for the related kinases was established by homogeneous time-resolved fluorescence (HTRF), and the inhibitory activity of the compounds was determined. […] The kinases and compounds were pre-incubated for 10 min, and then ATP and substrate were added to start the reaction. All the enzyme-catalyzed reactions were carried out at 25° C. for 40 min. After the enzyme-catalyzed reactions were completed, 5 μL of TK antibody-cryptate and streptavidin-XL665 (the reaction concentration of streptavidin-XL665 was 62.5 nM) were added to the reaction mixtures, and the mixtures were incubated at 25° C. for another 60 min.

FGFR2 N549H = FGFR2 N549H (Homo sapiens (Human), UniProt P21802, N549H); test: HTRF kinase activity assay, FGFR2 N549H; type: biochemical
FGFR2 N549H, sequence (P21802 22-821 N549H): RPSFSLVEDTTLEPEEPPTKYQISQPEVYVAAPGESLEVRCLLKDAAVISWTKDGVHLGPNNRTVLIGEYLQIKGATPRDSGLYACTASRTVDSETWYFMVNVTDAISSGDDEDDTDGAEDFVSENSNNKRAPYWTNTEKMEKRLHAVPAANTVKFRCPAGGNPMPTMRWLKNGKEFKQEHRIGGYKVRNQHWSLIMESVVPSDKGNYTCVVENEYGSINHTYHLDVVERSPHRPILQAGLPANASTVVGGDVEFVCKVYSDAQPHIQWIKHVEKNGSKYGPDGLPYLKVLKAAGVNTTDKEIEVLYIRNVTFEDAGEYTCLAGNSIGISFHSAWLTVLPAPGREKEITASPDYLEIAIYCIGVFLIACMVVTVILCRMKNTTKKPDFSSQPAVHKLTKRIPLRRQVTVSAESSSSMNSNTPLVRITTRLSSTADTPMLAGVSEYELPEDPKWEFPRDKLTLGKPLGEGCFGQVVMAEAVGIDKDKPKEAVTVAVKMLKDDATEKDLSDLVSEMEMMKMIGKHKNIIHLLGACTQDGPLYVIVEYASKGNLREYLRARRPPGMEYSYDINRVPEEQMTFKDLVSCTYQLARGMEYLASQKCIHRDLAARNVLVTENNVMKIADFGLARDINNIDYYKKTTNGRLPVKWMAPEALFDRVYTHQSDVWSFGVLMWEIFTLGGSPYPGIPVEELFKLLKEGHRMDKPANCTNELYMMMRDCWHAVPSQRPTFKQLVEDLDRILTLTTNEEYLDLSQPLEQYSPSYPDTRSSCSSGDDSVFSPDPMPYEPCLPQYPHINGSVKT
Procedure: as §1

FGFR2 = FGFR2 (Homo sapiens (Human), UniProt P21802); test: HTRF kinase activity assay, FGFR2; type: biochemical
FGFR2, sequence (P21802 22-821): as the sequence (P21802 22-821 N549H) above, with H528N counted along it
Procedure: as §1

[1] = test system: Ba/F3 KIF5B-RET-V804M cells; test: Ba/F3 KIF5B-RET-V804M cell inhibition (CellTiter-Glo); type: cell-based; settings: Mus musculus, BaF3, 72 h
Procedure: (§2) Activity Experiment 3: Inhibition of Ba/F3 KIF5B-RET Cells by Prepared Compounds Ba/F3 KIF5B-RET, Ba/F3KIF5B-RET-V804M, Ba/F3 RET-M918T and Ba/F3 KIF5B-RET-G810R cells growing in log phase were harvested and counted using a […]. The cell viability was determined by the trypan blue exclusion method, and the cell viability was kept over 90%. The cell concentration was adjusted, and 90 μL of the cell suspension was added to a 96-well plate. The cells in the 96-well plate were incubated overnight at 37° C. with 5% CO2 and 95% humidity. Corresponding gradient concentrations of drug solutions (the maximum concentration was 1000 nM) were added to the 96-well plate inoculated with cells at 10 μL/well. Triplicate wells were set per drug concentration, and the final concentration of DMSO was 0.1%. The drug-treated cells in the 96-well plate were incubated for another 72 h at 37° C. with 5% CO2 and 95% humidity. After the drug treatment was completed, 100 μL of CellTiter-Glo reagent was added to each well. The cell plate was shaken on an orbital shaker for 5 min to lyse the cells and then let stand at room temperature for 20 min to stabilize the luminescence signals, and then the luminescence values were read. The data were analyzed using the GraphPad Prism 5.0 software. Dose-response curves were fit to the data using nonlinear S-curve regression, and IC50 was calculated from the curves.

FGFR1 = FGFR1 (Homo sapiens (Human), UniProt P11362); test: HTRF kinase activity assay, FGFR1; type: biochemical
FGFR1, sequence (P11362 22-822): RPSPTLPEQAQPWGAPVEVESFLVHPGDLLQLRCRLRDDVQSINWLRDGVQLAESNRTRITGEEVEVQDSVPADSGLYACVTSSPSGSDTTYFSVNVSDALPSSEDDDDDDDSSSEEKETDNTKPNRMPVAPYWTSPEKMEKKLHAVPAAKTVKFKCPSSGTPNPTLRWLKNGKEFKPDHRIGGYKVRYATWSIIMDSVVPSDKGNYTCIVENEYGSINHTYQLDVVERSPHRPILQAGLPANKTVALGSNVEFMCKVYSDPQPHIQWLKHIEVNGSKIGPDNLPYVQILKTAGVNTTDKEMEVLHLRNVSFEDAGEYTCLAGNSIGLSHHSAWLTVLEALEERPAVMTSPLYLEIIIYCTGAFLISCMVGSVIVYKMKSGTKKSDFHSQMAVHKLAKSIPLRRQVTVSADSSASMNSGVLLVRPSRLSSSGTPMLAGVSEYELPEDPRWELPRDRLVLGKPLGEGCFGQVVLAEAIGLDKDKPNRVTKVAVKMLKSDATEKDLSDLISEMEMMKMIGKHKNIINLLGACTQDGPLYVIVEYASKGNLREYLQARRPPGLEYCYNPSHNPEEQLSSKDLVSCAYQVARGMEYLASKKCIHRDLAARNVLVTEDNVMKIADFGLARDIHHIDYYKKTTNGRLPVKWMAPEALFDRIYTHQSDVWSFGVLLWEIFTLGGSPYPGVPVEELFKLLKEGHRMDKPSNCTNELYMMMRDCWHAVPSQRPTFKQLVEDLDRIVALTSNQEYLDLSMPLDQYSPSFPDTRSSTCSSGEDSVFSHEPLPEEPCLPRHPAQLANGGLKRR
Procedure: (§3) Activity Experiment 8: Inhibition of FGFR Family Kinases' Activity by Prepared Compounds The compounds were assayed for activity IC50 against the FGFR family kinases. Related kinases were purchased from Carna and Signalchem.
(§4) The activity assay method for the related kinases was established by homogeneous time-resolved fluorescence (HTRF), and the inhibitory activity of the compounds was determined. A 5 μL reaction mixture was prepared, comprising 1× enzymatic buffer (Cisbio, HTRF KinEASE™-TK), 5 mM MgCl2, 1 mM DTT, 1 μM TK substrate-biotin (Cisbio, HTRF KinEASE™-TK), corresponding concentrations of ATP and related kinases, and gradient concentrations of compounds.
(§5) The kinases and compounds were pre-incubated for 10 min, and then ATP and substrate were added to start the reaction. All the enzyme-catalyzed reactions were carried out at 25° C. for 40 min. After the enzyme-catalyzed reactions were completed, 5 μL of TK antibody-cryptate and streptavidin-XL665 (the reaction concentration of streptavidin-XL665 was 62.5 nM) were added to the reaction mixtures, and the mixtures were incubated at 25° C. for another 60 min.

FGFR3 V555M = FGFR3 V555M (Homo sapiens (Human), UniProt P22607, V555M); test: HTRF kinase activity assay, FGFR3 V555M; type: biochemical
FGFR3 V555M, sequence (P22607 23-806 V555M): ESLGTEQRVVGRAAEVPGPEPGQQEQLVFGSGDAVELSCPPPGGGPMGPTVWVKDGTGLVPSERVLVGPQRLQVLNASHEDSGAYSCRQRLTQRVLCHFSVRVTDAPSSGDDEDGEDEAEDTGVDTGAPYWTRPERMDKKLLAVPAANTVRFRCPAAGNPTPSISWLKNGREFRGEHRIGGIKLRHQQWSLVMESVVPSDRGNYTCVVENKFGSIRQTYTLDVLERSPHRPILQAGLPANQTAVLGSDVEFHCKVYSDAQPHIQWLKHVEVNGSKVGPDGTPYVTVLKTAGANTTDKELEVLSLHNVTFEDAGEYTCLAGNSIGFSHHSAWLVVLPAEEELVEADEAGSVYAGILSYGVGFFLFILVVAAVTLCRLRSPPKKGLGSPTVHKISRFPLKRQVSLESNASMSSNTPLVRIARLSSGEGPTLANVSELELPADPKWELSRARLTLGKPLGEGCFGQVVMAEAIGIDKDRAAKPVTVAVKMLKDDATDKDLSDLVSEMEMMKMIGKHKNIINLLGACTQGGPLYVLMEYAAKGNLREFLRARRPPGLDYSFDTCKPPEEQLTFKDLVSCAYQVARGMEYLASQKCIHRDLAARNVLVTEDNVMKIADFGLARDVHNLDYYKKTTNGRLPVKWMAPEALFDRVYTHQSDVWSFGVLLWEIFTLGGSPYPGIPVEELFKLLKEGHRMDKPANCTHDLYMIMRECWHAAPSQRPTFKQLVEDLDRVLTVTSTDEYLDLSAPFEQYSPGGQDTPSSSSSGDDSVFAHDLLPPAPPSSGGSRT
Procedure: as §3, §4, §5

Ba/F3 RET-M918T cells = test: Ba/F3 RET-M918T cell inhibition (CellTiter-Glo); type: cell-based; settings: Mus musculus, BaF3, 72 h
Procedure: as §2

FGFR3 K650E = FGFR3 K650E (Homo sapiens (Human), UniProt P22607, K650E); test: HTRF kinase activity assay, FGFR3 K650E; type: biochemical
FGFR3 K650E, sequence (P22607 23-806 K650E): as the sequence (P22607 23-806 V555M) above, with M533V, K628E counted along it
Procedure: as §3, §4, §5

FGFR1 V561M = FGFR1 V561M (Homo sapiens (Human), UniProt P11362, V561M); test: HTRF kinase activity assay, FGFR1 V561M; type: biochemical
FGFR1 V561M, sequence (P11362 22-822 V561M): as the sequence (P11362 22-822) above, with V540M counted along it
Procedure: as §3, §4, §5

FGFR2 V564F = FGFR2 V564F (Homo sapiens (Human), UniProt P21802, V564F); test: HTRF kinase activity assay, FGFR2 V564F; type: biochemical
FGFR2 V564F, sequence (P21802 22-821 V564F): as the sequence (P21802 22-821 N549H) above, with H528N, V543F counted along it
Procedure: as §1

[2] = test system: Ba/F3 KIF5B-RET-G810R cells; test: Ba/F3 KIF5B-RET-G810R cell inhibition (CellTiter-Glo); type: cell-based; settings: Mus musculus, BaF3, 72 h, maximum concentration 1000 nM
Procedure: as §2

[3] = Metabolic stability in human liver microsomes; settings: human liver microsomes, NADPH, Table 3; for microsomal CLint at 1 µM: CLint (μL/min/mg); for half-life at 1 µM: T1/2 (min)
[4] = Tissue distribution assay in mice; type: in vivo, mouse; settings: for concentration at 4 h: male, mouse
Procedure: Male NVSG mice (weighing 20-25 g) were orally administered compound 94 and Loxo-292 at a dose of 30 mg/kg. The plasma and tissue samples of the liver, the brain and the lungs and the like of the animals are collected 4 h after administration. Blood plasma collection: The whole blood was collected at about 80-100 μL in EDTA-containing EP tubes and centrifuged at 4000 g for 5 min, and then the upper plasma was collected and stored at −80° C.
Tissue collection: After the animals were euthanized, the tissues were collected and snap-frozen in liquid nitrogen, 5 mL of homogenization solution (50% acetonitrile) was added per gram of tissue. The tissues were processed into homogenates in a tissue homogenizer and stored at −80° C. The concentration of compound in the plasma and tissue samples was quantified by liquid chromatography-tandem mass spectrometry (LC-MS/MS).

FGFR3 = FGFR3 (Homo sapiens (Human), UniProt P22607); test: HTRF kinase activity assay, FGFR3; type: biochemical
FGFR3, sequence (P22607 23-806): as the sequence (P22607 23-806 V555M) above, with M533V counted along it
Procedure: as §3, §4, §5

[5] = NVSG mice, oral 30 mg/kg, 4 h after administration

FGFR2 K641R, sequence (P21802 22-821 K641R): as the sequence (P21802 22-821 N549H) above, with H528N, K620R counted along it

Row | Structure (SMILES) | IC50 (FGFR2 K641R) | IC50 (FGFR2 N549H) | IC50 (FGFR2) | IC50 [1] | IC50 (FGFR1) | IC50 (FGFR3 V555M) | IC50 (Ba/F3 RET-M918T cells) | IC50 (FGFR3 K650E) | IC50 (FGFR1 V561M) | IC50 (FGFR2 V564F) | IC50 [2] | microsomal CLint at 1 µM [3] | half-life at 1 µM [3] | IC50 (FGFR3) | also measured
1 | COc1ccc(CN2C3CC2CN(c2ccc(-c4cc(OCC(C)(C)O)cn5ncc(C#N)c45)cn2)C3)cn1 [Selpercatinib, selpercatinib, reference compound] | 0.0112 µM | 0.00926 µM | 0.0206 µM | 0.0384 µM | 0.304 µM | 0.188 µM | 0.0204 µM | 0.0459 µM | 1.95 µM | 0.0129 µM | > 1 µM | 60.4 µL/min/mg | 22.9 min | 0.349 µM | concentration at 4 h ([4]; brain, NVSG mice, oral 30 mg/kg, 4 h after administration, read-out: Concentration of compound in brain): 88.3 ng/g; concentration at 4 h ([4]; liver, NVSG mice, oral 30 mg/kg, 4 h after administration, read-out: Concentration of compound in liver): 12900 ng/g; concentration at 4 h ([4]; lung, NVSG mice, oral 30 mg/kg, 4 h after administration, read-out: Concentration of compound in lung): 7190 ng/g; concentration at 4 h ([4]; plasma, NVSG mice, oral 30 mg/kg, 4 h after administration, read-out: Concentration of compound in plasma): 14.6 µg/mL
2 | [2H]C([2H])([2H])N1CCN(c2cc(-c3ccc(N4CC5CC(C4)N5Cc4ccc(OC)nc4)nc3)c3c(C#N)cnn3c2)CC1 [Compound 94] | 0.00739 µM | 0.00219 µM | 0.0265 µM | 0.099 µM | 0.301 µM | 0.0743 µM | 0.0171 µM | 0.0365 µM | 1.4 µM | 0.00358 µM | 0.464 µM | 41.2 µL/min/mg | 33.6 min | 0.309 µM | Concentration of compound in brain [4, 5]: 2883.99 ng/g; Concentration of compound in liver [4, 5]: 70199.89 ng/g; Concentration of compound in lung [4, 5]: 87220.49 ng/g; Concentration of compound in plasma [4, 5]: 3.17497 µg/mL; Concentration distribution in tissues of target organs of mice compared with Loxo-292 ([4]; after oral administration): higher concentration distribution

Source: patent US20230322769A1, “HETEROAROMATIC RING COMPOUND AS RET KINASE INHIBITOR, AND PREPARATION AND USE THEREOF” (JIANGSU CHIA TAI FENGHAI PHARMACEUTICAL CO., LTD., priority 2020, published 2023)
